According to patent US12472272B2, “Radiolabelled compounds for diagnosis or treatment of prostate-specific membrane antigen- expressing cancer” (PROVINCIAL HEALTH SERVICES AUTHORITY, priority 2019, dated 2025):

Legend:
[1] = tested on: PSMA-expressing LNCAP cancer xenografts; test: Biodistribution of ^68Ga-labeled PSMA-targeting tracers; type: in vivo, mice
Procedure: (§1) Imaging and biodistribution experiments were performed using NODSCID 1L2RγKO male mice. Mice were anesthetized by inhalation with 2% isoflurane in oxygen, and implanted subcutaneously with 1×10^7 LNCaP cells behind left shoulder. Mice were imaged or used in biodistribution studies when the tumor grew up to reach 5-8 mm in diameter during 5-6 weeks.
(§2) PET imaging experiments were conducted using Siemens Inveon micro PET/CT scanner. Each tumor bearing mouse was injected 6-8 MBq of Ga-68 labeled tracer through the tail vein under anesthesia (2% isoflurane in oxygen). The mice were allowed to recover and roam freely in their cage. After 50 min, the mice were sedated again with 2% isoflurane in oxygen inhalation and positioned in the scanner. A 10-min CT scan was conducted first for localization and attenuation correction after segmentation for reconstructing the PET images. Then, a 10-min static PET imaging was performed to determined uptake in tumor and other organs. The mice were kept warm by a heating pad during acquisition. For imaging studies acquired at 3 h post-injection (p.i.), the mice were placed in the micro PET/CT scanner at 170 min p.i. Then, the CT acquisitions were conducted as described above, a 15-min static PET imaging was performed to determined uptake in tumor and other organs.
For biodistribution studies, the mice were injected with the radiotracer as described above. At predetermined time points (1 or 3 h for ^68Ga studies; 1, 4, 24, 72, or 120 h for ^177Lu studies), the mice was anesthetized with 2% isoflurane inhalation, and euthanized by CO2 inhalation. Blood was withdrawn immediately from the heart, and the organs/tissues of interest were collected. The collected organs/tissues were weighed and counted using a Perkin Elmer (Waltham, MA) Wizard2 2480 gamma counter. The uptake in each organ/tissue was normalized to the injected dose using a standard curve, and expressed as the percentage of the injected dose per gram of tissue (% ID/g).

[2] = tested on: LNCaP tumors; test: PET/CT imaging of ^68Ga-labeled tracers; type: in vivo, mice; details: FIG. 3
Procedure: as §1, §2

O=C([O-])CN1CCN(CC(=O)[O-])CCN(CC(=O)NC[C@H]2CC[C@H](C(=O)N[C@@H](Cc3c4ccccc4cc4ccccc34)C(=O)NCCCC[C@H](NC(=O)N[C@@H](CCC(=O)O)C(=O)O)C(=O)O)CC2)CCN(CC(=O)[O-])CC1.[68Ga+3] [^68Ga-HTK03041]
Tissue (% ID/g): Adrenal glands ([1]; 1 h post-injection): 8.90 ± 2.56 % ID/g
Tissue (% ID/g): Blood ([1]; 1 h post-injection): 1.43 ± 0.30 % ID/g
Tissue (% ID/g): Bone ([1]; 1 h post-injection): 1.29 ± 0.45 % ID/g
Tissue (% ID/g): Brain ([1]; 1 h post-injection): 0.10 ± 0.05 % ID/g
Tissue (% ID/g): Fat ([1]; 1 h post-injection): 2.06 ± 0.59 % ID/g
Tissue (% ID/g): Heart ([1]; 1 h post-injection): 1.82 ± 0.21 % ID/g
Tissue (% ID/g): Intestine ([1]; 1 h post-injection): 1.14 ± 0.18 % ID/g
Tissue (% ID/g): Kidneys ([1]; 1 h post-injection): 170 ± 26.4 % ID/g
Tissue (% ID/g): Lacrimal ([1]; 1 h post-injection): 2.44 ± 1.79 % ID/g
Tissue (% ID/g): Liver ([1]; 1 h post-injection): 1.38 ± 0.25 % ID/g
Tissue (% ID/g): Lungs ([1]; 1 h post-injection): 4.32 ± 0.62 % ID/g
Tissue (% ID/g): Muscle ([1]; 1 h post-injection): 0.75 ± 0.09 % ID/g
Tissue (% ID/g): Pancreas ([1]; 1 h post-injection): 1.47 ± 0.16 % ID/g
Tissue (% ID/g): Salivary ([1]; 1 h post-injection): 4.99 ± 0.88 % ID/g
Tissue (% ID/g): Seminal ([1]; 1 h post-injection): 1.03 ± 0.27 % ID/g
Tissue (% ID/g): Spleen ([1]; 1 h post-injection): 8.95 ± 3.22 % ID/g
Tissue (% ID/g): Stomach ([1]; 1 h post-injection): 0.41 ± 0.11 % ID/g
Tissue (% ID/g): Tail ([1]; 1 h post-injection): 1.36 ± 0.45 % ID/g
Tissue (% ID/g): Testes ([1]; 1 h post-injection): 1.34 ± 0.22 % ID/g
Tissue (% ID/g): Thyroid ([1]; 1 h post-injection): 2.48 ± 0.44 % ID/g
Tissue (% ID/g): Tumor ([1]; 1 h post-injection): 23.1±6.11 % ID/g
Tissue (% ID/g): Urine ([1]; 1 h post-injection): 173 ± 93.01 % ID/g
tumor-to-background contrast ratio Tumor: Blood ([1]; 1 h post-injection): 17.3 ± 7.24
tumor-to-background contrast ratio Tumor: Muscle ([1]; 1 h post-injection): 31.6 ± 12.1
tumor-to-background contrast ratio Tumor: kidney ([1]; 1 h post-injection): 0.14 ± 0.04
Tissue (% ID/g): Adrenal glands ([1]; 3 h post-injection): 4.04 ± 1.20 % ID/g
Tissue (% ID/g): Blood ([1]; 3 h post-injection): 0.83 ± 0.27 % ID/g
Tissue (% ID/g): Bone ([1]; 3 h post-injection): 0.98 ± 0.40 % ID/g
Tissue (% ID/g): Brain ([1]; 3 h post-injection): 0.06 ± 0.02 % ID/g
Tissue (% ID/g): Fat ([1]; 3 h post-injection): 1.06 ± 0.20 % ID/g
Tissue (% ID/g): Heart ([1]; 3 h post-injection): 0.93 ± 0.17 % ID/g
Tissue (% ID/g): Intestine ([1]; 3 h post-injection): 0.67 ± 0.09 % ID/g
Tissue (% ID/g): Kidneys ([1]; 3 h post-injection): 121 ± 37.6 % ID/g
Tissue (% ID/g): Lacrimal ([1]; 3 h post-injection): 2.82 ± 3.84 % ID/g
Tissue (% ID/g): Liver ([1]; 3 h post-injection): 0.82 ± 0.15 % ID/g
Tissue (% ID/g): Lungs ([1]; 3 h post-injection): 2.14 ± 0.39 % ID/g
Tissue (% ID/g): Muscle ([1]; 3 h post-injection): 0.40 ± 0.06 % ID/g
Tissue (% ID/g): Pancreas ([1]; 3 h post-injection): 0.71 ± 0.12 % ID/g
Tissue (% ID/g): Salivary ([1]; 3 h post-injection): 2.11 ± 0.57 % ID/g
Tissue (% ID/g): Seminal ([1]; 3 h post-injection): 4.56 ± 9.00 % ID/g
Tissue (% ID/g): Spleen ([1]; 3 h post-injection): 4.19 ± 1.58 % ID/g
Tissue (% ID/g): Stomach ([1]; 3 h post-injection): 0.26 ± 0.06 % ID/g
Tissue (% ID/g): Tail ([1]; 3 h post-injection): 0.86 ± 0.73 % ID/g
Tissue (% ID/g): Testes ([1]; 3 h post-injection): 0.89 ± 0.12 % ID/g
Tissue (% ID/g): Thyroid ([1]; 3 h post-injection): 1.19 ± 0.23 % ID/g
Tissue (% ID/g): Tumor ([1]; 3 h post-injection): 28.2±9.17 % ID/g
Tissue (% ID/g): Urine ([1]; 3 h post-injection): 171 ± 93.3 % ID/g
tumor-to-background contrast ratio Tumor: Blood ([1]; 3 h post-injection): 36.6 ± 15.4
tumor-to-background contrast ratio Tumor: Muscle ([1]; 3 h post-injection): 73.8 ± 30.9
tumor-to-background contrast ratio Tumor: kidney ([1]; 3 h post-injection): 0.26 ± 0.13
uptake in PET/CT images [2]: higher uptake was observed in LNCap tumor xenografts, kidneys and urinary bladders
